From patent US5475009A, “1, 2-dialkoxyethanes as 5-lipoxygenase inhibitors” (Abbott Laboratories, priority 1994, dated 1995)

Target: T1, 5-Lipoxygenase (Homo sapiens, UniProt P09917)
T1 construct: endogenous in cells; host or cells: human heparinized whole blood (its leukocytes)
T1 sequence (P09917 1-674): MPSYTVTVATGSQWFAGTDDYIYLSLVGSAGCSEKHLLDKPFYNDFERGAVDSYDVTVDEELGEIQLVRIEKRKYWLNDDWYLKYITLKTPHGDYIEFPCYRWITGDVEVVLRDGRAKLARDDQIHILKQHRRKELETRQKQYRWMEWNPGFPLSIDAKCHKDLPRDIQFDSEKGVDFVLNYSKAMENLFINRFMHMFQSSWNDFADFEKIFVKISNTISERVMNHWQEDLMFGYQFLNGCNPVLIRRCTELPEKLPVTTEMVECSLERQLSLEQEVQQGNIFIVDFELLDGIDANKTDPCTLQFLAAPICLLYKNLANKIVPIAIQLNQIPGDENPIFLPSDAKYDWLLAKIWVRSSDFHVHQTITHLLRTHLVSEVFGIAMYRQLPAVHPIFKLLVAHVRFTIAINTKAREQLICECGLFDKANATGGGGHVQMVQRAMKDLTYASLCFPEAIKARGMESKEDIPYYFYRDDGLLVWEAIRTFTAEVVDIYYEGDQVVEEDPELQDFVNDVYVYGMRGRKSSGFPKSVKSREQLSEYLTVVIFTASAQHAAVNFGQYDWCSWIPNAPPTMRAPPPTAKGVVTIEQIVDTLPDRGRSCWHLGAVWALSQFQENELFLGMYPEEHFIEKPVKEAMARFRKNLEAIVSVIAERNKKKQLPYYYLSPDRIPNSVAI
Assay: Inhibition of calcium ionophore A23187-induced LTB4 biosynthesis in human whole blood (radioimmunoassay)
Type: cell-based
Details: human heparinized whole blood, 15 min preincubation, A23187 8.3 μM, 30 min, read-out: Inhibition of stimulated LTB4 formation in human whole blood (IC50 (10^-6 M)); for inhibition at 0.2 µM: @ 0.20 μM
Description: Inhibition of leukotriene biosynthesis was evaluated in an assay, involving calcium ionophore-induced LTB4 biosynthesis expressed human whole blood. Human heparinized whole blood was preincubated with test compounds or vehicle for 15 min at 37° C. followed by calcium ionophore A23187 challenge (final concentration of 8.3 μM) and the reaction terminated after 30 min by adding two volumes of methanol containing prostaglandin B2 as an internal recovery standard. The methanol extract was analyzed for LTB4 using a commercially available radioimmunoassay.
In Vitro Inhibitory Potencies of Compounds of this Invention
Against 5-Lipoxygenase from Stimulated LTB4
Formation in Human Whole Blood

Row | inhibition at 0.2 µM | inhibition at 0.78 µM | Structure (SMILES) | other results
1 | 100% |  | CO/N=C(\c1cc(F)cc(OCc2ccc3ccccc3c2)c1)[C@H]1COC(C)(C)O1 [4(E oxime), E-(4S)-O-methyl-2,2-dimethyl-4-[(5-fluoro-3-(napth-2-ylmethyloxy)phenyl)oximinomethyl]-1,3-dioxolane] | 
2 |  | 78% | CO/N=C(/c1cc(F)cc(OCc2ccc3ccccc3c2)c1)[C@H]1COC(C)(C)O1 [4(Z oxime), Z-(4S)-O-methyl-2,2-dimethyl-4-[(5-fluoro-3-(napth-2-ylmethyloxy)phenyl)oximinomethyl]-1,3-dioxolane] | 
3 |  |  | CO/N=C(\c1cc(F)cc(OCc2ccc3c(ccc(=O)n3C)c2)c1)[C@H]1COC(C)(C)O1 [Example 5, E-(4S)-O-methyl-2,2-dimethyl-4-[(5-fluoro-3-(1,2-dihydro-1-methyl-2-oxoquinoline-6-ylmethyloxy)phenyl)oximinomethyl]-1,3-dioxolane] | inhibition at 0.1 µM (@ 0.10 μM): 95%
4 | 83% |  | CO/N=C(/c1cc(F)cc(OCc2ccc3c(ccc(=O)n3C)c2)c1)[C@H]1COC(C)(C)O1 [Example 6, Z-(4S)-O-methyl-2,2-dimethyl-4-[(5-fluoro-3-(1,2-dihydro-1-methyl-2-oxoquinoline-6-ylmethyloxy)phenyl)oximinomethyl]-1,3-dioxolane] | 
5 | 95% |  | COC[C@@H](OC)[C@@H](OC)c1cc(F)cc(OCc2ccc3ccccc3c2)c1 [Example 7, anti-(1S, 2R)-1-[(5-fluoro-3-(napth-2-ylmethyloxy)phenyl)]-1,2,3-trimethoxypropane] | 
6 |  | 92% | COC[C@@H](OC)[C@H](OC)c1cc(F)cc(OCc2ccc3ccccc3c2)c1 [Example 8, syn-(1R, 2R)-1-[(5-fluoro-3-(napth-2-ylmethyloxy)phenyl)]-1,2,3-trimethoxypropane] | 
